We go through 2 molecules from patent US20220315624A1, “THIOSTREPTON ANALOGS AND METHODS OF MAKING AND USING SAME” (YALE UNIVERSITY, priority 2019, published 2022).

Converted amounts (≈) assume the structure as drawn. Where two headings read alike, the source gives them in different places.

Test [1] has as its system E. coli ATCC 25922. Nature of the test: MIC broth microdilution. Type of test: cell-based. Conditions: Escherichia coli, ATCC25922. The method in brief: (§1)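 Clinical isolates or ATCC strains were tested by CLSI broth microdilution. Wells held approximately 5.0×10^5 CFU/mL in cation-adjusted Mueller Hinton broth, supplemented for streptococci with 3% lysed horse blood, and plates sat at 35° C. for 16-20 hr (streptococci 20-24 hr) before visual MIC reading.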
On the technique in general: Dilution methods test growth across graded concentrations, often in twofold steps.

Test [2] concerns E. faecalis ATCC 29212 VSE. Nature of the test: MIC broth microdilution. Type of test: cell-based. Conditions: Enterococcus faecalis, ATCC29212. The method, boiled down: as §1
Test [3] relates to E. faecalis MMX 486 VRE. In words: MIC broth microdilution. Type of test: cell-based. Conditions: Enterococcus faecalis. The method in brief: as §1
In test [4] the test system is E. faecium MMX 485 VRE. In words: MIC broth microdilution. It is filed as cell-based. Conditions: Enterococcus faecium. The method, boiled down:
as §1

Test [5] has as its system E. faecium MMX 708 VSE. In words: MIC broth microdilution. Type of test: cell-based. The following applies: Enterococcus faecium, MMX708VSE. The method, boiled down: as §1
Test [6] has as its system S. aureus ATCC 29213 MSSA. Nature of the test: MIC broth microdilution. The following applies: Staphylococcus aureus. It is filed as cell-based. The method, boiled down: as §1
Test [7] relates to S. aureus MMX 8088 MRSA. Nature of the test: MIC broth microdilution. It is filed as cell-based. The following applies: Staphylococcus aureus. The method, boiled down: as §1
In test [8] the test system is S. pneumoniae ATCC 49619 PISP. In words: MIC broth microdilution. The following applies: Streptococcus pneumoniae, ATCC49619, 20 h. It is filed as cell-based. The method in brief:
as §1

Test [9] has as its system S. pyogenes ATCC 19615. In words: MIC broth microdilution. It is filed as cell-based. The following applies: Streptococcus pyogenes, ATCC19615, 20 h. The method, boiled down:
as §1

Test [10] deals with S. aureus ATCC 29213 MSSA. The following applies: range in parentheses; cited from earlier work.
In test [11] the test system is E. faecalis ATCC 29212 VSE. The following applies: range in parentheses; cited from earlier work.
For test [12], the system named is S. pneumoniae ATCC 49619 PISP. The following applies: range in parentheses; cited from earlier work.
Test [13] relates to E. coli ATCC 25922. The following applies: range in parentheses; cited from earlier work.

As to `CN[C@H](CC(C)C)C(=O)N[C@H]1C(=O)N[C@@H](CC(N)=O)C(=O)N[C@H]2C(=O)N[C@H]3C(=O)N[C@H](C(=O)N[C@H](C(=O)O)c4cc(O)cc(O)c4-c4cc3ccc4O)[C@H](O)c3ccc(c(Cl)c3)Oc3cc2cc(c3O[C@@H]2O[C@H](CO)[C@@H](O)[C@H](O)[C@H]2O[C@H]2C[C@](C)(N)[C@H](O)[C@H](C)O2)Oc2ccc(cc2Cl)[C@H]1O` [Vancomycin, reference compound], the MIC is over 64 µg/mL in test [1]; 2 µg/mL (≈ 1.38 µM) in [2]; over 32 µg/mL in test [3] (VRE); over 32 µg/mL in [4] (VRE); 0.25 µg/mL (≈ 0.173 µM) in test [5]; 1 µg/mL (≈ 0.69 µM) in [6]. In addition, the MIC amounted to 1 µg/mL (≈ 0.69 µM) in [7] (MRSA), 0.12 µg/mL (≈ 0.0828 µM) in [8] and 0.25 µg/mL (≈ 0.173 µM) in [9]. In addition, the “CLSI quality control range (MIC)” value is 0.5 to 2 µg/mL in [10], 1 to 4 µg/mL in [11] and 0.12 to 0.5 µg/mL in test [12].

Turning to `CC(C)(O/N=C(\C(=O)N[C@@H]1C(=O)N2C(C(=O)[O-])=C(C[n+]3ccccc3)CS[C@H]12)c1csc(N)n1)C(=O)O` [Ceftazidime, reference compound], the MIC in [1] (E. coli ATCC 25922, CAMHB, read-out: MIC) was 0.25 µg/mL (≈ 0.457 µM); in test [2] (E. faecalis ATCC 29212 VSE, CAMHB, read-out: MIC), over 32 µg/mL; in test [3] (E. faecalis MMX 486 VRE, CAMHB, read-out: MIC), over 32 µg/mL; in [4] (E. faecium MMX 485 VRE, CAMHB, read-out: MIC), over 32 µg/mL; in test [5] (E. faecium MMX 708 VSE, CAMHB, read-out: MIC), over 32 µg/mL; in test [6] (S. aureus ATCC 29213 MSSA, CAMHB, read-out: MIC) it was 8 µg/mL (≈ 14.6 µM). The MIC in test [7] (S. aureus MMX 8088 MRSA, CAMHB, read-out: MIC) is over 32 µg/mL; in test [8] (S. pneumoniae ATCC 49619 PISP, CAMHB with 3% lysed horse blood, read-out: MIC) it was 0.5 µg/mL (≈ 0.915 µM); in test [9] (S. pyogenes ATCC 19615, CAMHB with 3% lysed horse blood, read-out: MIC), 0.12 µg/mL (≈ 0.22 µM). For the same molecule, the “CLSI quality control range (MIC)” value in test [10] is 4 to 16 µg/mL; in test [13], 0.06 to 0.5 µg/mL.

One may read the MIC as the lowest concentration that inhibits growth of the organism.
